Experimental data from patent publication US20230279020A9, “CARM1 INHIBITORS AND USES THEREOF” (Epizyme, Inc., priority 2013, published 2023).

Biological target: Human CARM1 (PRMT4) (Homo sapiens (Human), UniProt Q86X55)
Assay: CARM1 enzyme assay on peptide substrate (3H-SAM Flashplate)
Settings: Biochemical potencies, classification codes; read-out: Biochem IC50

Human CARM1 (PRMT4), sequence (Q86X55 other isoform, or with tags, fused parts or gaps isoform Q86X55-1): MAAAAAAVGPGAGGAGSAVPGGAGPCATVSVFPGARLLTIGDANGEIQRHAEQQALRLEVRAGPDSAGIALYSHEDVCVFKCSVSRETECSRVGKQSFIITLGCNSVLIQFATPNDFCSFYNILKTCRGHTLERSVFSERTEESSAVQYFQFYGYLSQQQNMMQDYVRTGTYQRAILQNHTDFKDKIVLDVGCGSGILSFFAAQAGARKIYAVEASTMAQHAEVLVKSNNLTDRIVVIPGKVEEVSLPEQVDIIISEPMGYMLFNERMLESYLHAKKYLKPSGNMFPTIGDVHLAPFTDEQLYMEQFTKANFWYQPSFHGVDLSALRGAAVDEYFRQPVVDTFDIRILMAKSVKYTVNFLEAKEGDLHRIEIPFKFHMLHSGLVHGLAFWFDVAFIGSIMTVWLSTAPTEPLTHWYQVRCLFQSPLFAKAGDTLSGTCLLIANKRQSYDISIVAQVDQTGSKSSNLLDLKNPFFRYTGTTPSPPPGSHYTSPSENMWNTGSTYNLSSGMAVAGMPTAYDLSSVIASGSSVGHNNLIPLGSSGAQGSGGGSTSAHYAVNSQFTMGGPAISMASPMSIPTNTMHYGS

Structure (SMILES) | IC50 [nM]
CNCC(O)COc1cccc(-c2nc(-c3c(C)noc3C)c(C)c(N3CCO[C@H](CNC)C3)n2)c1 (stereo partly drawn) [Example 124-1a] | < 100
CNCC(O)COc1cccc(-c2nc(-c3c(C)noc3C)c(C)c(N3CCO[C@H](CN(C)S(C)(=O)=O)C3)n2)c1 (stereo partly drawn) [Example 126-1a] | < 100
CNCC(O)COc1cccc(-c2nc(-c3c(C)noc3C)c(C)c(N3CCO[C@H](CN(C)C(=O)OC)C3)n2)c1 (stereo partly drawn) [Example 127-1a] | < 100
CNC[C@@H](O)COc1ccc(Cl)c(-c2nc(NC3CCOCC3)c(C)c(-c3c(C)noc3C)n2)c1 [Example 127-3] | < 100
CNC[C@@H](O)COc1ccc(Cl)c(-c2nc(N[C@H]3CCO[C@@H](C)C3)c(C)c(-c3c(C)noc3C)n2)c1 [Example 128-3] | < 100
CNCC(O)COc1cccc(-c2nc(-c3c(C)noc3C)cc(N3CCNC(C(F)(F)F)C3)n2)c1 (stereo not drawn) [Example 131-1a] | < 100
CNC[C@@H](O)COc1ccc(Cl)c(-c2nc(NC[C@@H]3CCCO3)c(C)c(-c3c(C)noc3C)n2)c1 [Example 131-3] | < 100
CNCC(O)COc1cccc(-c2nc(-c3c(C)noc3C)cc(N3CCN(CC(F)(F)F)CC3)n2)c1 (stereo not drawn) [Example 132-1a] | < 100
CNC[C@@H](O)COc1ccc(Cl)c(-c2nc(N[C@@H]3CCO[C@H](C)C3)c(C)c(-c3c(C)noc3C)n2)c1 [Example 132-3] | < 100
CCOC(=O)N1CCC[C@@H]1COc1nc(-c2cc(OC[C@H](O)CNC)ccc2Cl)nc(-c2c(C)noc2C)c1C [Example 133-3] | < 100
CNCC(O)COc1cccc(-c2nc(N[C@H]3CC[C@H](O)C3)c(C)c(-c3c(C)noc3C)n2)c1 (stereo partly drawn) [Example 135-1a] | < 100
CNC[C@@H](O)COc1ccc(Cl)c(-c2nc(N[C@@H]3CCN(C(=O)OC)[C@H](C)C3)c(C)c(-c3c(C)noc3C)n2)c1 [Example 135-3] | < 100
CNCC(O)COc1cc(NC)cc(-c2nc(NC3CCOCC3)c(C)c(-c3c(C)noc3C)n2)c1 (stereo not drawn) [Example 136-1a] | < 100
CCOC(=O)N1CCC[C@@H]1CCNc1nc(-c2cc(OC[C@H](O)CNC)ccc2Cl)nc(-c2c(C)noc2C)c1C [Example 136-3] | < 100
CCOC(=O)N1CCC[C@H]1CCNc1nc(-c2cc(OC[C@H](O)CNC)ccc2Cl)nc(-c2c(C)noc2C)c1C [Example 137-3] | < 100
CNC[C@H](O)COc1ccc(Cl)c(-c2nc(-c3c(C)noc3C)c(C)c(N3CCC4(CCN(C5CC5)C4)C3)n2)c1 (stereo partly drawn) [Example 138-1a] | < 100

Structure (SMILES) | IC50 [nM]
CNC[C@@H](O)COc1ccc(Cl)c(-c2nc(-c3c(C)noc3C)c(C)c(N3CCC4(CCN(C5CC5)C4)C3)n2)c1 (stereo partly drawn) [Example 138-3] | < 100
CNC[C@@H](O)COc1ccc(Cl)c(-c2nc(N[C@@H]3CCN(C4CC4)[C@H](C)C3)c(C)c(-c3c(C)noc3C)n2)c1 [Example 139-3] | < 100
CNCC(O)COc1cccc(-c2nc(NCC3(N(C)C)CCOCC3)c(C)c(-c3c(C)noc3C)n2)c1 (stereo not drawn) [Example 140-1a] | < 100
CNC[C@@H](O)COc1ccc(Cl)c(-c2nc(-c3c(C)noc3C)c(C)c(N3Cc4cnn(C)c4C3)n2)c1 [Example 140-3] | < 100
CCC1(CNc2nc(-c3cccc(OCC(O)CNC)c3)nc(-c3c(C)noc3C)c2C)CCOCC1 (stereo not drawn) [Example 141-1a] | < 100
CNC[C@@H](O)COc1ccc(Cl)c(-c2nc(-c3c(C)noc3C)c(C)c(N3CCc4nc(C)sc4C3)n2)c1 [Example 141-3] | < 100
CNCC(O)COc1cccc(-c2nc(NCC3CCOCC3)c(Cl)c(-c3c(C)noc3C)n2)c1 (stereo not drawn) [Example 142-1a] | < 100
CNC[C@@H](O)COc1ccc(Cl)c(-c2nc(-c3c(C)noc3C)c(C)c(N3Cc4nccnc4C3)n2)c1 [Example 142-3] | < 100
CNCC(O)COc1cccc(-c2nc(NCC3CCOCC3)c(F)c(-c3c(C)noc3C)n2)c1 (stereo not drawn) [Example 143-1a] | < 100
CNC[C@@H](O)COc1ccc(Cl)c(-c2nc(N[C@H]3C[C@H](OC)C3)c(C)c(-c3c(C)noc3C)n2)c1 [Example 143-3] | < 100
CNC[C@@H](O)COc1ccc(Cl)c(-c2nc(N[C@H]3C[C@@H](OC)C3)c(C)c(-c3c(C)noc3C)n2)c1 [Example 144-3] | < 100
CNCC(O)COc1cccc(-c2nc(NC3CCOCC3)c(C)c(-c3c(C)noc3CO)n2)c1 (stereo not drawn) [Example 145-3] | < 100
CNCC(O)COc1cccc(-c2nc(-c3c(C)noc3C)cc(N3CCN(C(=O)N(C)C)[C@H](C)C3)n2)c1 (stereo partly drawn) [Example 146-1a] | < 100
CNCC(O)COc1cccc(-c2nc(-c3c(C)noc3C)cc(N3CCN(S(C)(=O)=O)[C@H](C)C3)n2)c1 (stereo partly drawn) [Example 147-1a] | < 100
CNC[C@@H](O)COc1ccc(Cl)c(-c2nc(N[C@H]3CO[C@@H](C)C3)c(Cl)c(-c3c(C)noc3C)n2)c1 [Example 148-3] | < 100
CNCC(O)COc1cccc(-c2nc(-c3c(C)noc3C)c(C)c(N3CCO[C@@H](CN(C)C(=O)OC)C3)n2)c1 (stereo partly drawn) [Example 149-1a] | < 100

Now from value to compound:

IC50 [nM] | Structure (SMILES)
< 100 | CNCC(O)COc1ccc(C)c(-c2nc(NC3CCOC(C)C3)c(C)c(-c3c(C)noc3C)n2)c1 (stereo not drawn) [Example 124-3]
< 100 | CNCC(O)COc1cccc(-c2nc(-c3c(C)noc3C)c(C)c(N3CCO[C@H](CO)C3)n2)c1 (stereo partly drawn) [Example 125-1a]
< 100 | CNCC(O)COc1ccc(C)c(-c2nc(NC3CCN(C(=O)OC)CC3)c(C)c(-c3c(C)noc3C)n2)c1 (stereo not drawn) [Example 125-3]
< 100 | CNC[C@@H](O)COc1ccc(Cl)c(-c2nc(OC[C@@H]3CCOC3)c(C)c(-c3c(C)noc3C)n2)c1 [Example 126-3]
< 100 | CCOC(=O)N1CC[C@@H](Nc2nc(-c3cc(OC[C@H](O)CNC)ccc3Cl)nc(-c3c(C)noc3C)c2Cl)C1 [Example 129-3]
< 100 | CNC[C@@H](O)COc1ccc(Cl)c(-c2nc(NC[C@H]3CCCO3)c(C)c(-c3c(C)noc3C)n2)c1 [Example 130-3]
< 100 | CNCC(O)COc1cccc(-c2nc(-c3c(C)noc3C)cc(N3CCN(C(=O)C4CC4)CC3)n2)c1 (stereo not drawn) [Example 133-1a]
< 100 | CNCC(O)COc1cccc(-c2nc(-c3c(C)noc3C)c(C)c(N3CCN(C(=O)OCCOC)CC3)n2)c1 (stereo not drawn) [Example 134-1a]
< 100 | CNC[C@@H](O)COc1ccc(Cl)c(-c2nc(NC[C@H]3COCCN3C(=O)OC(C)C)c(C)c(-c3c(C)noc3C)n2)c1 [Example 134-3]
< 100 | CNCC(O)COc1ccc(Cl)c(-c2nc(NC3(C)CCOCC3)c(Cl)c(-c3c(C)noc3C)n2)c1 (stereo not drawn) [Example 137-1a]
< 100 | CNCC(O)COc1cccc(-c2nc(-c3c(C)noc3C)cc(N3CCN(CCOC)CC3)n2)c1 (stereo not drawn) [Example 139-1a]
< 100 | CNCC(O)COc1cccc(-c2nc(-c3c(C)noc3C)cc(N3CCN(CC(F)(F)F)[C@H](C)C3)n2)c1 (stereo partly drawn) [Example 144-1a]
< 100 | CNCC(O)COc1cccc(-c2nc(-c3c(C)noc3C)cc(N3CCN(CCF)[C@H](C)C3)n2)c1 (stereo partly drawn) [Example 145-1a]
< 100 | CNC[C@@H](O)COc1ccc(Cl)c(-c2nc(NC3CC4(C3)CN(C(=O)OC)C4)c(C)c(-c3c(C)noc3C)n2)c1 [Example 146-3]
< 100 | CNC[C@@H](O)COc1ccc(Cl)c(-c2nc(N[C@H]3CCN(C)C[C@H]3F)c(C)c(-c3c(C)noc3C)n2)c1 [Example 147-3]
< 100 | CNCC(O)COc1cccc(-c2nc(-c3c(C)noc3C)c(C)c(N3CCO[C@@H](CN(C)C)C3)n2)c1 (stereo partly drawn) [Example 148-1a]
